We go through 6 compounds from ChEMBL document CHEMBL5360667, “Carboxylic Acid-Containing Indanyl Compounds as S1P5 Modulators for Treating Neurodegenerative Diseases” (ACS Med Chem Lett, 2023).

The assay concerns the target Sphingosine 1-phosphate receptor 5 (Homo sapiens) (UniProt Q9H228). Briefly: Agonist activity at recombinant S1P5 (unknown origin) expressed in CHO cell membranes assessed as increase in [35S]GTPgammaS binding preincubated for 30 mins followed by [35S]GTPgammaS addition and measured after 40 mins by microbeta scintillation counter analysis. Format: functional. The conditions noted are these: Membrane, filed as agonist, time 70.0 min.

SMILES strings stand for the structures.

Sphingosine 1-phosphate receptor 5 (Homo sapiens), sequence (Q9H228 whole entry): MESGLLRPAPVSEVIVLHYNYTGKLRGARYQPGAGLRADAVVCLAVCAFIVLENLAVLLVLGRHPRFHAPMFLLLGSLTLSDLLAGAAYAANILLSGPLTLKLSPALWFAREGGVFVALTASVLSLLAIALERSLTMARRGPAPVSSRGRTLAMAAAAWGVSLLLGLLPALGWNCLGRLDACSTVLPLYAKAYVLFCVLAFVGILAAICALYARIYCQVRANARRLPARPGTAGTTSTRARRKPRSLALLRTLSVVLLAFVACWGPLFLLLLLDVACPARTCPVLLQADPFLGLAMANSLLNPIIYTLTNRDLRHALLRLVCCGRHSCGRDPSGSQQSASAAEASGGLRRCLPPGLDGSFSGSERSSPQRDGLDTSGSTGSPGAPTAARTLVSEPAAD

Regarding `CC(C)Oc1ccc(COc2ccc3c(c2)CCC3N2CC(C(=O)O)C2)cc1C(F)(F)F` (stereo unspecified), the EC came to 1 nM.
The same measure for `Cc1c(OCc2c(Cl)cccc2Cl)ccc2c1CCC2N1CCC(C(=O)O)CC1` (stereo unspecified): under 1 nM; for `O=C(O)C1CN(C2CCc3cc(OCc4cc(F)c(F)cc4F)ccc32)C1` (stereo unspecified): 1 nM; for `Cc1cc(OCc2c(Cl)cccc2Cl)cc2c1C(N1CCC(C(=O)O)CC1)CC2` (stereo unspecified): under 1 nM.
Take `O=C(O)C1CN(C2CCc3cc(OCc4ccc(C5CC5)c(C(F)(F)F)c4)ccc32)C1` (stereo unspecified): the EC was found to be 1 nM.
The same measure for `O=C(O)C1CCN(C2CCc3c2ccc(OCc2c(Cl)cccc2Cl)c3F)CC1` (stereo unspecified): under 1 nM.
